Data from patent US11638707B2, “Substituted amino triazoles useful as chitinase inhibitors” (Molecure S.A., priority 2019, dated 2023).
Counter-ions that a name gives are not always drawn.

Key:
[1] = target: recombinant human CHIT1 (Homo sapiens (Human), UniProt Q13231); assay: Human CHIT1 activity assay; type: biochemical; details: recombinant human CHIT1, citrate buffer pH 5.2, 37° C., 60 minutes; read-out: hCHIT1, IC50
Method in brief: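 Recombinant human CHIT1 hydrolysed 4-methylumbelliferyl β-D-N,N′,N″-triacetylchitotriose in citrate buffer, pH 5.2, for 60 minutes at 37° C in the dark with shaking. Released 4MU was read by fluorescence at 460 nm under basic pH; IC50 values were calculated from dilution series.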

[2] = target: recombinant human AMCase (Homo sapiens (Human), UniProt Q9BZP6); assay: Human AMCase activity assay; type: biochemical; details: citrate buffer pH 5.2, 37° C., 60 minutes, read-out: hAMCase, IC50
Sequence of recombinant human AMCase (Q9BZP6 22-476): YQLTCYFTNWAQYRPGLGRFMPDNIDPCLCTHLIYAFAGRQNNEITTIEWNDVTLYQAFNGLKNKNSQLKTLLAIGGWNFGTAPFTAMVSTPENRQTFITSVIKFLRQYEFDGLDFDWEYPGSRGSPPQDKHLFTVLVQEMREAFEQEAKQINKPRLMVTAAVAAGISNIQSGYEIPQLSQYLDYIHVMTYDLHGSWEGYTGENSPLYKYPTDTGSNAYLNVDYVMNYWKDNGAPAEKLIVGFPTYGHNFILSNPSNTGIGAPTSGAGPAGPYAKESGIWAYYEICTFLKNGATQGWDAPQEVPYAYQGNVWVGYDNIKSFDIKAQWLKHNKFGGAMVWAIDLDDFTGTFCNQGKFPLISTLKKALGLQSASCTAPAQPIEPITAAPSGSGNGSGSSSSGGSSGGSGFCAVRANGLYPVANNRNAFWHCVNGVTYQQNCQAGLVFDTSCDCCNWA
Method in brief: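 Recombinant hAMCase hydrolysed 4-methylumbelliferyl β-D-N,N′-diacetylchitobioside in citrate buffer pH 5.2, run 60 min at 37 °C in the dark with shaking. Released 4MU fluorescence was read at 460 nm under basic pH, and IC50 values were fitted from the compound dilutions.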

[3] = target: hERG channel (Homo sapiens (Human), UniProt Q12809); assay: Human ERG channel binding assay (fluorescence polarization); details: Table 1; tracer displacement, 4 h at room temperature
Sequence of hERG channel (Q12809 whole entry): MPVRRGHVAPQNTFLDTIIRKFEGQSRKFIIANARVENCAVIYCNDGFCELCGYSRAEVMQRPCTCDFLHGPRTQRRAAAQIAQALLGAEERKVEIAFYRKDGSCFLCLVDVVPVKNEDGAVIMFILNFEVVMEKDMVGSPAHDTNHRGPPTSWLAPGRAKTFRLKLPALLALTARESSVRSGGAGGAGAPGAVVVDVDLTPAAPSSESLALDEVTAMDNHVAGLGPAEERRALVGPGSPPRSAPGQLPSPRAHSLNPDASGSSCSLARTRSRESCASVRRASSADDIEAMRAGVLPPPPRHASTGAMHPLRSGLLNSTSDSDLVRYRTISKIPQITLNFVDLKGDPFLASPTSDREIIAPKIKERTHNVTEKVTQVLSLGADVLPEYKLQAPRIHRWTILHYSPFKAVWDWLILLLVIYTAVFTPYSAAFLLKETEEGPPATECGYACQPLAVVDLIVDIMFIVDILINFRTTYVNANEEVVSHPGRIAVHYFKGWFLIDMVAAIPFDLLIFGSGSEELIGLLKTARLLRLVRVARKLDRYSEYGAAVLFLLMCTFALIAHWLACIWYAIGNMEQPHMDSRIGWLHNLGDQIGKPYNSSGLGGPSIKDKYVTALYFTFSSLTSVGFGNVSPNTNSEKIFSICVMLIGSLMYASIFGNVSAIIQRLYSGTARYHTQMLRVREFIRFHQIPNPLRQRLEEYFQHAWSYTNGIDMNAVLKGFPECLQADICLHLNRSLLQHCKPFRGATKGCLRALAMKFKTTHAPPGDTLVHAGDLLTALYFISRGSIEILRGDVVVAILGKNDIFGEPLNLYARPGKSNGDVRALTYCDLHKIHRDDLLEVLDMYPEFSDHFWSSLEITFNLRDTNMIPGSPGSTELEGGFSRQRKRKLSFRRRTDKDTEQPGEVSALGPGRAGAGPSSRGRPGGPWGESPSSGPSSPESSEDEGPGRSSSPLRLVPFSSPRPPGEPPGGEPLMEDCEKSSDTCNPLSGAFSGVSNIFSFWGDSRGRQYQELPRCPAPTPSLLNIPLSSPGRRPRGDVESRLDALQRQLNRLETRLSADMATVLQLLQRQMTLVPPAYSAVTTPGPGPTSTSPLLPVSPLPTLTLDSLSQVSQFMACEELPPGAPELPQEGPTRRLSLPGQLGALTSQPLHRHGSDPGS
Method in brief: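 Serially diluted compounds were incubated with a hERG-containing membrane fraction and a high-affinity red-shifted fluorescent hERG ligand. Displacement of the tracer was read by fluorescence polarization, and IC50 values were derived from the concentration-response curves.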

Sequence of recombinant human CHIT1 (Q13231 22-466): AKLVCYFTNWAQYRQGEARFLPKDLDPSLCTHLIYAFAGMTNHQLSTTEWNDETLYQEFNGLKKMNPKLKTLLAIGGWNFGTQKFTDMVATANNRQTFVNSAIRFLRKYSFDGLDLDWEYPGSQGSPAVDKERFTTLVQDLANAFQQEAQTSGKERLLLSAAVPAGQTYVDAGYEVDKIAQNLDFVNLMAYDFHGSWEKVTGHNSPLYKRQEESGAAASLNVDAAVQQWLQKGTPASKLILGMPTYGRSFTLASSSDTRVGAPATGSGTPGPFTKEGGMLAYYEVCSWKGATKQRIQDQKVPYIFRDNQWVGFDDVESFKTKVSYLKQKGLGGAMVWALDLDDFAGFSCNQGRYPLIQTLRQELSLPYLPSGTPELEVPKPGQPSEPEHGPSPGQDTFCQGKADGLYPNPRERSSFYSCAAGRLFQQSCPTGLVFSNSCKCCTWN

Structure (SMILES) | IC50 [1] [nM] | IC50 [2] [nM] | IC50 [3] [nM]
Nc1nnc(N2CCC(N3C[C@H](C(=O)NCC(F)(F)F)OC[C@@H]3Cc3ccc(Cl)cc3)CC2)[nH]1 [Example 26, (2R,5S)-4-(1-(5-amino-4H-1,2,4-triazol-3-yl)piperidin-4-yl)-5-(4-chlorobenzyl)-N-(2,2,2-trifluoroethyl)morpholine-2-carboxamide 2,2,2-trifluoroacetate] | 100 to 1000 | < 100 | > 100000
CCC(O)(CC)[C@H]1CN(C2CCN(c3nnc(N)[nH]3)CC2)[C@@H](Cc2ccc(Cl)cc2)CO1 [Example 68, 3-((2R,5S)-4-(1-(5-amino-4H-1,2,4-triazol-3-yl)piperidin-4-yl)-5-(4-chlorobenzyl)-morpholin-2-yl)pentan-3-ol 2,2,2-trifluoroacetate] | < 100 | < 100 | 25000 to 100000
Nc1nnc(N2CCC(N3C[C@H](COCC(F)(F)F)OC[C@@H]3Cc3ccc(Cl)cc3)CC2)[nH]1 [Example 39, 5-(4-((2R,5S)-5-(4-chlorobenzyl)-2-((2,2,2-trifluoroethoxy)methyl)morpholino)-piperidin-1-yl)-4H-1,2,4-triazol-3-amine 2,2,2-trifluoroacetate] | < 100 | < 100 | 1000 to 10000
Nc1nnc(N2CCC(N3C[C@H]([C@@H](O)C(F)(F)F)OC[C@@H]3Cc3ccc(Cl)cc3)CC2)[nH]1 [Example 17, (R)-1-((2R,5S)-4-(1-(5-amino-4H-1,2,4-triazol-3-yl)piperidin-4-yl)-5-(4-chlorobenzyl)morpholin-2-yl)-2,2,2-trifluoroethanol 2,2,2-trifluoroacetate] | < 100 | < 100 | 25000 to 100000
Nc1nnc(N2CCC(N3C[C@H](C(=O)N4CCCC4)OC[C@@H]3Cc3ccc(Cl)cc3)CC2)[nH]1 [Example 60, ((2R,5S)-4-(1-(5-amino-4H-1,2,4-triazol-3-yl)piperidin-4-yl)-5-(4-chlorobenzyl)-morpholin-2-yl)(pyrrolidin-1-yl)methanone 2,2,2-trifluoroacetate] | 100 to 1000 | < 100 | > 100000
Cc1cc([C@H]2CN(C3CCN(c4nnc(N)[nH]4)CC3)[C@@H](Cc3ccc(Cl)cc3)CO2)[nH]n1 [Example 34, 5-(4-((2R,5S)-5-(4-chlorobenzyl)-2-(3-methyl-1H-pyrazol-5-yl)morpholino)-piperidin-1-yl)-4H-1,2,4-triazol-3-amine 2,2,2-trifluoroacetate] | < 100 | < 100 | 25000 to 100000
CN(C)C(=O)OC[C@H]1CN(C2CCN(c3nnc(N)[nH]3)CC2)[C@@H](Cc2ccc(Cl)cc2)CO1 [Example 48, ((2R,5S)-4-(1-(5-amino-4H-1,2,4-triazol-3-yl)piperidin-4-yl)-5-(4-chlorobenzyl)morpholin-2-yl)methyl dimethylcarbamate 2,2,2-trifluoroacetate] | < 100 | < 100 | 25000 to 100000
CSC[C@H]1CN(C2CCN(c3nnc(N)[nH]3)CC2)[C@@H](Cc2ccc(Cl)cc2)CO1 [Example 41, 5-(4-((2R,5S)-5-(4-chlorobenzyl)-2-((methylthio)methyl)morpholino)piperidin-1-yl)-4H-1,2,4-triazol-3-amine dihydrochloride] | < 100 | < 100 | 25000 to 100000
Nc1nnc(N2CCC(N3C[C@H](CN4CCCCC4)OC[C@@H]3Cc3ccc(Cl)cc3)CC2)[nH]1 [Example 52, 5-(4-((2S,5S)-5-(4-chlorobenzyl)-2-(piperidin-1-ylmethyl)morpholino)piperidin-1-yl)-4H-1,2,4-triazol-3-amine 2,2,2-trifluoroacetate] | 100 to 1000 | < 100 | 25000 to 100000
Cn1nnc(C[C@H]2CN(C3CCN(c4nnc(N)[nH]4)CC3)[C@@H](Cc3ccc(Cl)cc3)CO2)n1 [Example 5, 5-(4-((2S,5S)-5-(4-chlorobenzyl)-2-((2-methyl-2H-tetrazol-5-yl)methyl)-morpholino)piperidin-1-yl)-4H-1,2,4-triazol-3-amine 2,2,2-trifluoroacetate] | < 100 | < 100 | 25000 to 100000
Nc1nnc(N2CCC(N3C[C@H](Cn4cc(Cl)cn4)OC[C@@H]3Cc3ccc(Cl)cc3)CC2)[nH]1 [Example 44, 5-(4-((2R,5S)-2-((4-chloro-1H-pyrazol-1-yl)methyl)-5-(4-chlorobenzyl)-morpholino)piperidin-1-yl)-4H-1,2,4-triazol-3-amine 2,2,2-trifluoroacetate] | < 100 | < 100 | 1000 to 10000
N#Cc1cnn(C[C@H]2CN(C3CCN(c4nnc(N)[nH]4)CC3)[C@@H](Cc3ccc(Cl)cc3)CO2)c1 [Example 8, 1-(((2R,5S)-4-(1-(5-amino-4H-1,2,4-triazol-3-yl)piperidin-4-yl)-5-(4-chlorobenzyl)-morpholin-2-yl)methyl)-1H-pyrazole-4-carbonitrile 2,2,2-trifluoroacetate] | < 100 | < 100 | 25000 to 100000
